Source: patent publication US9056847B2, “Activity based probes (ABPs) interacting with glycosidases” (ACADEMISCH MEDISCH CENTRUM BIJ UNIVERSITEIT VAN AMSTERDAM, priority 2010, dated 2015)
Where two headings read alike, the source gives them in different places.

Tests used:
[1] = molecular target: T1, GBA (Homo sapiens (Human), UniProt P04062, R534H); test: GBA enzyme activity assay with 4-methylumbelliferyl β-D-glucopyranoside, inhibitor preincubated 30 min (apparent IC50); format: biochemical
[2] = molecular target: GBA1 (Homo sapiens (Human), UniProt P04062); test: Kinetic constants of GBA1 inhibition (Table 2); format: biochemical; conditions: Table 2 kinetic constants
Sequence of GBA1 (Homo sapiens (Human), UniProt P04062) (P04062 40-536): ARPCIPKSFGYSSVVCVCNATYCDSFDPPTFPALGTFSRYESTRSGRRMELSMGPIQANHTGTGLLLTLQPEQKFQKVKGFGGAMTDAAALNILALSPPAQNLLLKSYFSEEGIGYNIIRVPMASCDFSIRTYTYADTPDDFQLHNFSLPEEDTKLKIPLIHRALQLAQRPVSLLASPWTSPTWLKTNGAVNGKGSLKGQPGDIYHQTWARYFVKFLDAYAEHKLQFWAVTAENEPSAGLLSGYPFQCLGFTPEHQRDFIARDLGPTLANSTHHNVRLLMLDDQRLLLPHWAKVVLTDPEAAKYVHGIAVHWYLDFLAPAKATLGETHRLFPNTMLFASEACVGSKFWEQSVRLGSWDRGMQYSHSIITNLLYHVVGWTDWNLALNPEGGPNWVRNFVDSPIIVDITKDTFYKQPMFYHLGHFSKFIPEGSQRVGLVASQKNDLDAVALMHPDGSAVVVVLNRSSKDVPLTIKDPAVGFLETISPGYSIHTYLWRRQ

[3] = molecular target: T1, GBA; test: Continuous substrate release assay for inhibition constants; format: biochemical
Text: Previously discontinuous methods have been used to determine the inhibition constants of glycosidase inhibitors. […] Therefore the inhibition constants have been determined in a continuous substrate assay which was first described in 1982 (2) and has recently been reappraised in 2010 (3). In these experiments, inhibition of the enzyme and hydrolysis of the substrate proceed concurrently making the situation slightly more complex than the discontinuous (FIG. 39 Scheme 2). The time-dependent interaction of inhibitor (I) with free β-glucosidase (E) was considered to occur in separate stages (A). A rapid reversible interaction is followed by a slower, irreversible reaction that transforms the reversible enzyme-inhibitor complex (EI) into an irreversible enzyme-inhibitor complex (EI*) (FIG. 39 Scheme 2). Progress curves were obtained (FIG. 28a) and apparent rate constant k′ was plotted versus the concentration (FIG. 28b) to obtain estimates of the Ki (equilibrium constant) and ki (rate constant)
To 100 μL McIlvaine buffer (pH 5.2, 0.2% sodium taurocholate, 0.1% Triton X-100) containing 4-methylumbelliferyl β-D-glucoside (7.5 mM) in Greiner flat bottom black 96-well plate was added 5 μL inhibitor (25× stock in DMSO). The resulting mixture was preincubated at 37° C. for 15 min in a TECAN GENios microplate reader. GBA (2 ng) in McIlvaine buffer (20 μL pH 5.2, 0.2% sodium taurocholate, 0.1% Triton X-100) was preheated to 37° C. for 15 min before being added to the substrate mix. The resulting solution was mixed by horizontal shaking for 15 sec, after which release 4-methylumbelliferyl measured with a TECAN GENios platereader (λex 340 nm and λem 465 nm) for the indicated time. Bleaching of the fluorophore, which was observed during the assay, was corrected by subtracting blanks (100 μL substrate buffer, 5 μL DMSO, 20 μL McIlvaine buffer). Apparent rate constants k′ were obtained by fitting the resulting progress curves (FIG. 28A) to the one-phase association equitation y (y max y0)(1−exp^−kt)yo+in GraphPad Prism version 5.00 for Windows, GraphPad Software, San Diego Calif. USA, www.graphpad.com. Measurements were performed in nine fold and plotting of the obtained k′ values versus [^I0] yielded rectangular hyperbolar functions (FIG. 28B).
[formula] estimates of Ki app and ki were obtained. The Ki value in the absence of substrate was obtained by correcting the Ki app with […]

[4] = molecular target: T1, GBA; test: Sensitivity of detection of ABP-labeled GBA on slab gel by fluorescence scanning
Protocol: After the incubation, we resolved the protein preparations with SDS-PAGE and analyzed the labeled proteins by fluorescence scanning of the slab gel on a Typhoon Variable Mode Imager (FIG. 24a). Labeled recombinant GBA migrated at the expected mass of 57 kDa. […] We could detect as little as 20 attomol GBA by fluorescence scanning. […] Apparently, nearly all of the probe had been covalently bound to recombinant GBA, consistent with its high affinity for binding.

[5] = molecular target: GBA1 (Homo sapiens (Human), UniProt P04062, N370S); test: In situ labeling of GBA1 in Gaucher (N370S) fibroblasts; format: cell-based; conditions: 20 nM for 1 hour, N370S GBA1 homozygote fibroblasts
Sequence of GBA1 (Homo sapiens (Human), UniProt P04062, N370S) (P04062 40-536 N409S): as the sequence (P04062 40-536) above, with N370S counted along it
Protocol: FIG. 20 presents a schematic illustration of Gaucher treatment (FIG. 20a) via the chaperone isofagimine, whose structure is separately shown in FIG. 20b. […] The fibroblasts were labeled with Fluorophore 1-cyclophellitol (for example 20 nM for 1 hour), wherein about 50% of cellular GBA1 was labeled.

[6] = molecular target: glucocerebrosidase (Homo sapiens (Human), UniProt P04062); test: In situ inhibition of glucocerebrosidase in cells at 18° C. and 37° C.; format: cell-based; conditions: 10 nM, 2 hours
Sequence of glucocerebrosidase (P04062 40-536): as the sequence (P04062 40-536) above
Text: To identify the mechanism of entry of the probes, we performed a temperature experiment. […] We harvested the cells and determined the residual activity using a fluorogenic substrate assay. […] We therefore exclude that the uptake is solely by endocytosis.

[7] = molecular target: T2, GBA (Mus musculus (Mouse), UniProt P17439); test: Labeling of GBA in live mice; format: in vivo; conditions: 0.1 nmol intravenously, 2 h
Protocol: We next studied the labeling of GBA by MDW941 in intact fibroblasts using time-lapse microscopy. […] As a control, matched mice received the buffer solution intravenously. […] In addition to GBA, MDW933 clearly labeled other proteins that occur in the intestine in the mouse.
Experimental procedures were all approved by the appropriate ethics committee for animal experiments. C57BI/6J mice were obtained from Harlan and fed a commercially available lab diet (RMH-B; Hope Farms). […] After 2 h of administration the mice were anesthetized with FFM mix (1 ml of fentanylcitrate, 1 ml of midazalam and 2 ml of distilled water), and blood, urine and organs were collected and directly frozen in liquid nitrogen. […] Homogenates were analyzed as described above.
Target sequence in this assay (P17439 20-515): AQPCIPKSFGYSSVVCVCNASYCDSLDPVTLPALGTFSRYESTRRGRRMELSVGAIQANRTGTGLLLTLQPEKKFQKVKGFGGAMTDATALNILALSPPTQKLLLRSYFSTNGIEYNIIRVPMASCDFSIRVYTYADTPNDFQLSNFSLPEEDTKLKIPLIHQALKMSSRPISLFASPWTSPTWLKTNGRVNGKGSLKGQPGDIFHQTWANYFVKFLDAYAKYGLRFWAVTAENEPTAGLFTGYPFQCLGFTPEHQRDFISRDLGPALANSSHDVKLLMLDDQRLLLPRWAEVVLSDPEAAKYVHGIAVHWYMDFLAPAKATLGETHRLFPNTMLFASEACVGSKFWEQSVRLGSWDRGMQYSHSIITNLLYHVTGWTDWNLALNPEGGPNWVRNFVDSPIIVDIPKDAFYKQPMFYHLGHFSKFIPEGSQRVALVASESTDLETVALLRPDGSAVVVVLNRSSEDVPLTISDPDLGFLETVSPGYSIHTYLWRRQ

[8] = system: lactase (lactase-phloridzin hydrolase: LPH); test: Lactase activity inhibition (liberated glucose); conditions: incubation for 30 min with 1 mM
[9] = molecular target: T2, GBA; test: Labeling specificity in cell homogenates (SDS-PAGE, fluorescence scanning); conditions: 100 nM, 30 min, 37° C., homogenates of cultured RAW cells
Target sequence in this assay (P17439 20-515 limits assumed): as the sequence (P17439 20-515) above

T1 sequence (P04062 40-536 R534H): as the sequence (P04062 40-536) above, with R495H counted along it

## CC1=CC(C)=[N+]2C1=C(CCCCc1cn(C[C@@H]3[C@@H](O)[C@H](O)[C@@H](O)[C@@H]4O[C@H]34)nn1)c1c(C)cc(C)n1[B-]2(F)F [MDW933]
[1]; FIG. 16, ABPs designed for GBA1, read-out: IC50
  IC50: 2 nM
[1]; rec. GBA1, 30 min, 37 C., pH 5.2 + Tch, Tr, read-out: Apparent IC50 (nM) rec. GBA1: 30 min, 37 C., pH 5.2 + Tch, Tr
  IC50: 2 ± 0.5 nM
[1]; recombinant GBA, read-out: apparent half-maximal inhibitory concentration (IC50)
  IC50: 1.24 ± 0.04 nM
[2]
  Ki: 0.95 nM
  ki: 0.0236 min⁻¹
[3]; equilibrium constant for initial binding, reported with s.e.m.
  Ki: 7 ± 2 nM
[3]; rate constant, reported with s.e.m.
  ki: 0.127 ± 0.024 min⁻¹
[3]; relative rate constant
  ki/Ki: 296000 M⁻¹ s⁻¹
[4]; 2 pmol GBA with excess probe, 1 h, 37° C., titration on gel
  amount of labeled GBA detectable by fluorescence scanning: 20 attomol
[4]; 2 pmol GBA, 30 min
  amount of probe resulting in detectable GBA on slab gel: 20 attomol
[4]; ABP-labeled GBA1
  amount of GBA1 detected on slab gel: 10 attomole
[5]
  cellular GBA1 labeled: about 50%
[6]
  in situ glucocerebrosidase activity: blocked glucocerebrosidase activity in situ
[7]; brain
  in vivo labeling of GBA in brain: almost no GBA
[7]; lung and liver
  in vivo labeling of GBA in most tissues: a considerable proportion of GBA
[8]
  inhibition of lactase activity: ~90%
[9]
  labeling specificity: exclusive labeling of GBA
